Measured values from the supplement of paper PMC9663587.

Tests used:
BSJ-03-123 [1] = compound: T1, CC(=O)c1c(C)c2cnc(Nc3ccc(N4CCN(CCOCCOCCOCCNC(=O)COc5cccc6c5C(=O)N(C5CCC(=O)NC5=O)C6=O)CC4)cn3)nc2n(C2CCCC2)c1=O [BSJ-03-123]
Ceritinib/LDK378 = compound: Cc1cc(Nc2ncc(Cl)c(Nc3ccccc3S(=O)(=O)C(C)C)n2)c(OC(C)C)cc1C1CCNCC1 [Ceritinib/LDK378]
Taselisib/GDC0032 = compound: Cc1nc(-c2cn3c(n2)-c2ccc(-c4cnn(C(C)(C)C(N)=O)c4)cc2OCC3)n(C(C)C)n1 [Taselisib/GDC0032]
Dasatinib = compound: Cc1nc(Nc2ncc(C(=O)Nc3c(C)cccc3Cl)s2)cc(N2CCN(CCO)CC2)n1 [Dasatinib]
[2] = compound: CC(=O)Nc1cccc(-n2c(=O)n(C3CC3)c(=O)c3c(Nc4ccc(I)cc4F)n(C)c(=O)c(C)c32)c1
Vorinostat = compound: O=C(CCCCCCC(=O)Nc1ccccc1)NO [Vorinostat]
[3] = compound: CO[C@@H](C)Cn1c(=O)n(C)c2cnc3ccc(-c4cncc(C(C)(C)O)c4)cc3c21
Neratinib/HKI272 [4] = compound: T2, CCOc1cc2ncc(C#N)c(Nc3ccc(OCc4ccccn4)c(Cl)c3)c2cc1NC(=O)/C=C/CN(C)C [Neratinib/HKI272]
Rucaparib = compound: CNCc1ccc(-c2[nH]c3cc(F)cc4c3c2CCNC4=O)cc1 [Rucaparib]
BSJ-01-175 = compound: CN(C)C/C=C/C(=O)Nc1ccc(O[C@@H]2CCC[C@@H](Nc3ncc(Cl)c(-c4c[nH]c5ccccc45)n3)C2)cc1 [BSJ-01-175]
AZD2014 = compound: CNC(=O)c1cccc(-c2ccc3c(N4CCOC[C@@H]4C)nc(N4CCOC[C@@H]4C)nc3n2)c1 [AZD2014]
Doxorubicin = compound: COc1cccc2c1C(=O)c1c(O)c3c(c(O)c1C2=O)C[C@@](O)(C(=O)CO)C[C@@H]3O[C@H]1C[C@H](N)[C@H](O)[C@H](C)O1 [Doxorubicin]
Volasertib/BI6727 = compound: CC[C@@H]1C(=O)N(C)c2cnc(Nc3ccc(C(=O)N[C@H]4CC[C@H](N5CCN(CC6CC6)CC5)CC4)cc3OC)nc2N1C(C)C [Volasertib/BI6727]
[5] = compound: CC(=O)c1c(C)c2cnc(Nc3ccc(N4CCNCC4)cn3)nc2n(C2CCCC2)c1=O
INK128/MLN0128 = compound: CC(C)n1nc(-c2ccc3oc(N)nc3c2)c2c(N)ncnc21 [INK128/MLN0128]
THZ531 [6] = compound: T3, CN(C)C/C=C/C(=O)Nc1ccc(C(=O)N2CCC[C@@H](Nc3ncc(Cl)c(-c4c[nH]c5ccccc45)n3)C2)cc1 [THZ531]
BSJ-03-123 [7] = compound: T1, BSJ-03-123; assay: increase in dead-cell fraction, 72 h; higher = more death;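 also: breast cancer cell lines in 384-well plates, stained with Hoechst plus LIVE/DEAD far red dye and imaged, cells above an LDR intensity threshold counted dead, Hoechst-negative corpses included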
Neratinib/HKI272 [8] = compound: T2, Neratinib/HKI272; assay: as above
[9] = compound: CCc1cnn2c(NCc3ccc[n+]([O-])c3)cc(N3CCCC[C@H]3CCO)nc12; assay: as above
YKL-5-124 = compound: C=CC(=O)Nc1ccc(C(=O)Nc2[nH]nc3c2CN(C(=O)N[C@H](CN(C)C)c2ccccc2)C3(C)C)cc1 [YKL-5-124]; assay: as above
THZ1 = compound: CN(C)C/C=C/C(=O)Nc1ccc(C(=O)Nc2cccc(Nc3ncc(Cl)c(-c4c[nH]c5ccccc45)n3)c2)cc1 [THZ1]; assay: as above
THZ531 [10] = compound: T3, THZ531; assay: as above
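For GR50, 72 h in this document: breast cancer and non-malignant breast epithelial cell lines, Deep Dye Drop or Dye Drop imaging, nine half-log doses, GR normalized to time-zero plates and DMSO-only controls.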

## HTERT_HME1
BSJ-03-123 [1]
  GR50, 72 h: 0.366 µM
Ceritinib/LDK378
  GR50, 72 h: 0.822 µM
Taselisib/GDC0032
  GR50, 72 h: 0.148 µM
Dasatinib
  GR50, 72 h: 0.183 µM
[2]
  GR50, 72 h: 0.00573 µM
Vorinostat
  GR50, 72 h: 3.02 µM
[3]
  GR50, 72 h: 0.00274 µM
Neratinib/HKI272 [4]
  GR50, 72 h: 0.151 µM
Rucaparib
  GR50, 72 h: > 10 µM
BSJ-01-175
  GR50, 72 h: 0.00582 µM
AZD2014
  GR50, 72 h: 0.0169 µM
Doxorubicin
  GR50, 72 h: 0.00471 µM
Volasertib/BI6727
  GR50, 72 h: 0.0172 µM
[5]
  GR50, 72 h: 0.222 µM
INK128/MLN0128
  GR50, 72 h: 0.0335 µM
THZ531 [6]
  GR50, 72 h: 0.22 µM
BSJ-03-123 [7]; 0.001 µM
  increase in dead-cell fraction: 0.0124
BSJ-03-123 [7]; 0.003162 µM
  increase in dead-cell fraction: -0.0077
BSJ-03-123 [7]; 0.01 µM
  increase in dead-cell fraction: 0.0297
BSJ-03-123 [7]; 0.03162 µM
  increase in dead-cell fraction: 0.0411
BSJ-03-123 [7]; 0.1 µM
  increase in dead-cell fraction: 0.0394
BSJ-03-123 [7]; 0.3162 µM
  increase in dead-cell fraction: 0.0338
BSJ-03-123 [7]; 1 µM
  increase in dead-cell fraction: 0.131
BSJ-03-123 [7]; 3.162 µM
  increase in dead-cell fraction: 0.119
BSJ-03-123 [7]; 10 µM
  increase in dead-cell fraction: 0.363
Neratinib/HKI272 [8]; 0.0003162 µM
  increase in dead-cell fraction: -0.0015
Neratinib/HKI272 [8]; 0.001 µM
  increase in dead-cell fraction: 0.0018
Neratinib/HKI272 [8]; 0.003162 µM
  increase in dead-cell fraction: 0.0002
Neratinib/HKI272 [8]; 0.01 µM
  increase in dead-cell fraction: -0.0031
Neratinib/HKI272 [8]; 0.03162 µM
  increase in dead-cell fraction: -0.0026
Neratinib/HKI272 [8]; 0.1 µM
  increase in dead-cell fraction: 0.0016
Neratinib/HKI272 [8]; 0.3162 µM
  increase in dead-cell fraction: 0.0161
Neratinib/HKI272 [8]; 1 µM
  increase in dead-cell fraction: 0.0278
Neratinib/HKI272 [8]; 3.162 µM
  increase in dead-cell fraction: 0.106
[9]; 0.0001 µM
  increase in dead-cell fraction: -0.0004
[9]; 0.0003162 µM
  increase in dead-cell fraction: -0.0019
[9]; 0.001 µM
  increase in dead-cell fraction: 0.0008
[9]; 0.003162 µM
  increase in dead-cell fraction: 0.0059
[9]; 0.01 µM
  increase in dead-cell fraction: 0.0263
[9]; 0.03162 µM
  increase in dead-cell fraction: 0.571
[9]; 0.1 µM
  increase in dead-cell fraction: 0.558
[9]; 0.3162 µM
  increase in dead-cell fraction: 0.535
[9]; 1 µM
  increase in dead-cell fraction: 0.511
YKL-5-124; 0.001 µM
  increase in dead-cell fraction: 0.0989
YKL-5-124; 0.003162 µM
  increase in dead-cell fraction: 0.131
YKL-5-124; 0.01 µM
  increase in dead-cell fraction: 0.165
YKL-5-124; 0.03162 µM
  increase in dead-cell fraction: 0.151
YKL-5-124; 0.1 µM
  increase in dead-cell fraction: 0.181
YKL-5-124; 0.3162 µM
  increase in dead-cell fraction: 0.224
YKL-5-124; 1 µM
  increase in dead-cell fraction: 0.144
YKL-5-124; 3.162 µM
  increase in dead-cell fraction: 0.293
YKL-5-124; 10 µM
  increase in dead-cell fraction: 0.304
THZ1; 0.0001 µM
  increase in dead-cell fraction: -0.0026
THZ1; 0.0003162 µM
  increase in dead-cell fraction: 0.0021
THZ1; 0.001 µM
  increase in dead-cell fraction: 0.0031
THZ1; 0.003162 µM
  increase in dead-cell fraction: 0.0375
THZ1; 0.01 µM
  increase in dead-cell fraction: 0.292
THZ1; 0.03162 µM
  increase in dead-cell fraction: 0.545
THZ1; 0.1 µM
  increase in dead-cell fraction: 0.528
THZ1; 0.3162 µM
  increase in dead-cell fraction: 0.548
THZ1; 1 µM
  increase in dead-cell fraction: 0.71
THZ531 [10]; 0.0001 µM
  increase in dead-cell fraction: -0.0002
THZ531 [10]; 0.0003162 µM
  increase in dead-cell fraction: -0.0145
THZ531 [10]; 0.001 µM
  increase in dead-cell fraction: 0.0054
THZ531 [10]; 0.003162 µM
  increase in dead-cell fraction: -0.0171
THZ531 [10]; 0.01 µM
  increase in dead-cell fraction: -0.0178
THZ531 [10]; 0.03162 µM
  increase in dead-cell fraction: 0.0065
THZ531 [10]; 0.1 µM
  increase in dead-cell fraction: 0.0042
THZ531 [10]; 0.3162 µM
  increase in dead-cell fraction: 0.175
THZ531 [10]; 1 µM
  increase in dead-cell fraction: 0.386

## BT474
BSJ-03-123 [1]
  GR50, 72 h: 0.235 µM
Ceritinib/LDK378
  GR50, 72 h: > 10 µM
Taselisib/GDC0032
  GR50, 72 h: 0.00452 µM
Dasatinib
  GR50, 72 h: 0.0392 µM
[2]
  GR50, 72 h: > 1 µM
Vorinostat
  GR50, 72 h: 2.71 µM
[3]
  GR50, 72 h: < 0.001 µM
Neratinib/HKI272 [4]
  GR50, 72 h: 0.00166 µM
Rucaparib
  GR50, 72 h: > 10 µM
BSJ-01-175
  GR50, 72 h: 0.0747 µM
AZD2014
  GR50, 72 h: < 0.001 µM
Doxorubicin
  GR50, 72 h: 0.0267 µM
Volasertib/BI6727
  GR50, 72 h: 0.00821 µM
[5]
  GR50, 72 h: > 3.16 µM
INK128/MLN0128
  GR50, 72 h: 0.00873 µM
THZ531 [6]
  GR50, 72 h: 0.0537 µM
BSJ-03-123 [7]; 0.001 µM
  increase in dead-cell fraction: 0.0078
BSJ-03-123 [7]; 0.003162 µM
  increase in dead-cell fraction: 0.0052
BSJ-03-123 [7]; 0.01 µM
  increase in dead-cell fraction: 0.0155
BSJ-03-123 [7]; 0.03162 µM
  increase in dead-cell fraction: 0.004
BSJ-03-123 [7]; 0.1 µM
  increase in dead-cell fraction: 0.0074
BSJ-03-123 [7]; 0.3162 µM
  increase in dead-cell fraction: 0.0224
BSJ-03-123 [7]; 1 µM
  increase in dead-cell fraction: 0.0243
BSJ-03-123 [7]; 3.162 µM
  increase in dead-cell fraction: 0.0241
BSJ-03-123 [7]; 10 µM
  increase in dead-cell fraction: 0.0415
Neratinib/HKI272 [8]; 0.0003162 µM
  increase in dead-cell fraction: 0.0014
Neratinib/HKI272 [8]; 0.001 µM
  increase in dead-cell fraction: 0.0075
Neratinib/HKI272 [8]; 0.003162 µM
  increase in dead-cell fraction: 0.0456
Neratinib/HKI272 [8]; 0.01 µM
  increase in dead-cell fraction: 0.235
Neratinib/HKI272 [8]; 0.03162 µM
  increase in dead-cell fraction: 0.359
Neratinib/HKI272 [8]; 0.1 µM
  increase in dead-cell fraction: 0.369
Neratinib/HKI272 [8]; 0.3162 µM
  increase in dead-cell fraction: 0.38
Neratinib/HKI272 [8]; 1 µM
  increase in dead-cell fraction: 0.438
Neratinib/HKI272 [8]; 3.162 µM
  increase in dead-cell fraction: 0.471
[9]; 0.0001 µM
  increase in dead-cell fraction: -0.0025
[9]; 0.0003162 µM
  increase in dead-cell fraction: -0.0015
[9]; 0.001 µM
  increase in dead-cell fraction: -0.0013
[9]; 0.003162 µM
  increase in dead-cell fraction: -0.002
[9]; 0.01 µM
  increase in dead-cell fraction: 0.0053
[9]; 0.03162 µM
  increase in dead-cell fraction: 0.207
[9]; 0.1 µM
  increase in dead-cell fraction: 0.246
[9]; 0.3162 µM
  increase in dead-cell fraction: 0.265
[9]; 1 µM
  increase in dead-cell fraction: 0.249
YKL-5-124; 0.001 µM
  increase in dead-cell fraction: 0.0145
YKL-5-124; 0.003162 µM
  increase in dead-cell fraction: 0.0218
YKL-5-124; 0.01 µM
  increase in dead-cell fraction: 0.019
YKL-5-124; 0.03162 µM
  increase in dead-cell fraction: 0.0189
YKL-5-124; 0.1 µM
  increase in dead-cell fraction: 0.0303
YKL-5-124; 0.3162 µM
  increase in dead-cell fraction: 0.0351
YKL-5-124; 1 µM
  increase in dead-cell fraction: 0.0209
YKL-5-124; 3.162 µM
  increase in dead-cell fraction: 0.0235
YKL-5-124; 10 µM
  increase in dead-cell fraction: 0.182
THZ1; 0.0001 µM
  increase in dead-cell fraction: -0.0007
THZ1; 0.0003162 µM
  increase in dead-cell fraction: -0.0012
THZ1; 0.001 µM
  increase in dead-cell fraction: -0.0015
THZ1; 0.003162 µM
  increase in dead-cell fraction: -0.0036
THZ1; 0.01 µM
  increase in dead-cell fraction: 0.0152
THZ1; 0.03162 µM
  increase in dead-cell fraction: 0.0225
THZ1; 0.1 µM
  increase in dead-cell fraction: 0.175
THZ1; 0.3162 µM
  increase in dead-cell fraction: 0.221
THZ1; 1 µM
  increase in dead-cell fraction: 0.139
THZ531 [10]; 0.0001 µM
  increase in dead-cell fraction: -0.0031
THZ531 [10]; 0.0003162 µM
  increase in dead-cell fraction: 0.0048
THZ531 [10]; 0.001 µM
  increase in dead-cell fraction: 0.003
THZ531 [10]; 0.003162 µM
  increase in dead-cell fraction: -0.0009
THZ531 [10]; 0.01 µM
  increase in dead-cell fraction: -0.0036
THZ531 [10]; 0.03162 µM
  increase in dead-cell fraction: 0.0037
THZ531 [10]; 0.1 µM
  increase in dead-cell fraction: 0.17
THZ531 [10]; 0.3162 µM
  increase in dead-cell fraction: 0.413
THZ531 [10]; 1 µM
  increase in dead-cell fraction: 0.229
